According to patent US4861876A, “Hematoporphyrin derivative and method of preparation and purification” (priority 1986, dated 1989):

Key:
L1210 cells = experiment: In vitro uptake by L1210 tumor cells; format: cell-based, mouse; conditions: 24 hours, 10 μg/ml; for Uptake in vitro: average + SD of three determinations
Experimental: Uptake of DHE or CHE, purified by gel-exclusion chromatography, was measured by extraction of cells after 24 hour incubations in vitro. Cell pellets (20-30 mg) were suspended in 800 μL of phosphate buffer (pH 3.5) and shaken for 3 minutes with 2 ml of a 1:1 mixture of methanol: chloroform. The lower phase was collected by centrifugation and used for measurement of absorbance at 400 nm.
In vitro uptake of DHE, CHE and HPD, hematoporphyrin, mesochlorin and bonellin by tumor cells was studied using L1210 cells incubated for 24 hours with 10 μg/ml concentrations of each respective compound. The cells were then washed for 30 minutes in fresh medium at 37° C. and drug concentrations were determined.

Lewis lung tumor = experiment: In vivo accumulation in Lewis lung tumor (extraction, fluorescence); conditions: for accumulation of fluorescent components at tumor loci (in words) / Uptake in vivo: 5 mg/kg i.p., 48 hours after injection; for Uptake in vivo: average + SD of three determinations; for fluorescence emission of tumor extracts (in words): excitation 400 nm, FIG. IV
Experimental: In vivo biological studies were conducted using DHE, CHE, HPD, hematoporphyrin, mesochlorin and bonellin. The Lewis lung tumor was maintained in female C57BL/6 mice by S.C. implant. Seven days after implantation, a respective compound was administered to test mice by i.p. injection at a dosage level of 5 mg/kg. Forty-eight hours after injection, each tumor was excised, weighed and homogenized in 50 mM 4-(2-hydroxyethyl)-1-piperazineethanesulfonic acid buffer (pH7) containing 10 mM cetyltrimethyl ammonium bromide (1 m./100 mg tissue). The resulting homogenates were shaken with 2.5 volumes of methanol: chloroform (1:1) and the phases separated by centrifugation. Under these conditions, fluorescence is quantitatively extracted into the chloroform-rich phase. These extracts were used for determination of fluorescence emission spectra (excitation wave length, 400 nm). […] For analytical studies, the extracts were evaporated and the residue hydrolyzed in 0.5 M HCl at 37° C. for 18 hours.

[1] = tested on: L1210 mouse/leukemia cells; experiment: Photodynamic effects on cell viability as a function of irradiation wavelength (soft-agar clonogenic assay); format: cell-based; conditions: for Action spectrum: cell viability after irradiation at 620 nm (mean + SD of control percentage) / Action spectrum: cell viability after irradiation at 630 nm (mean + SD of control percentage) / Action spectrum: cell viability after irradiation at 640 nm (mean + SD of control percentage) / Action spectrum: cell viability after irradiation at 650 nm (mean + SD of control percentage): 24 h incubation, 5 g/ml (so in the source), 2000 J/m^2, five minutes; for optimal phototoxic light wave length: cells loaded for 24 hours
Experimental: In order to determine the photosensitization capacity of DHE and CHE, respectively, comparison in vitro tests were prepared using L1210 mouse/leukemia cells grown in culture using Fischer's medium plus 10 percent horse serum. Cell suspensions (7 mg/ml wet weight) were incubated for 24 hours in growth medium containing the 5 µg/ml of the respective photosensitizer. The cell suspensions were, then, washed for 30 minutes at 37° C. in fresh medium to remove readily diffusible porphyrine.
Irradiation was carried out for five minutes (fluence =2000 J/m^2) using a 100 w tungsten-halogen lamp with a wave length selected via narrow bandpass interference filters (=10 nm). Photodynamic effects on cell viability, as a function of irradiation wavelength, were measured by a soft-agar clonogenic assay in the manner described in Kessel, "Determinants of Hematoporphyrincatalyzed Photosensitization" 36 Photochemical Photobiology pp. 99-101 (1982) which is incorporated herein by reference. Light filters were purchased from the Oriel Corp. of Stanford, CT, and the light flux was measured with a thermopile obtained from the same source.

[2] = Storage stability of aqueous solutions of CHE; format: physicochemical
Experimental: The storage stability of aqueous solutions of CHE (ph 7.5) is determined at -20° C. and at 4° C. respectively.

## CC1=C(CCC(=O)O)c2cc3nc(cc4[nH]c(cc4C)cc4[nH]c(cc1n2)cc4C)C(C)(C)C3CCC(=O)O (centres unmarked) [Bonellin, bonellin]
L1210 cells
  Uptake in vitro: 0.06 µg/100 mg cells
Lewis lung tumor
  accumulation of fluorescent components at tumor loci (in words): no detectible concentration of fluorescent products at tumor loci
  Uptake in vivo: < 0.01

## CCC1=C(C)c2cc3[nH]c(cc4nc(cc5[nH]c(cc1n2)c(C)c5CCC(=O)OC(C)C1=C(C)c2cc5[nH]c(cc6nc(cc7[nH]c(cc1n2)c(C)c7CCC(=O)O)C(CCC(=O)O)=C6C)c(C)c5C(C)O)C(CCC(=O)O)C4C)c(C)c3CC (centres unmarked) [CHE, chlorin-hematoporphyrin ester]
[1]
  Action spectrum: cell viability after irradiation at 620 nm (mean + SD of control percentage): 96 + 5 control percentage
  Action spectrum: cell viability after irradiation at 630 nm (mean + SD of control percentage): 87 + 5 control percentage
  Action spectrum: cell viability after irradiation at 640 nm (mean + SD of control percentage): 10 + 2 control percentage
  Action spectrum: cell viability after irradiation at 650 nm (mean + SD of control percentage): 65 + 2 control percentage
  optimal phototoxic light wave length: 640 nm
[1]; constant flux of 2000 J/M^2, CHE vs DHE
  lethality relative to DHE: 5 fold
L1210 cells
  in vitro accumulation compared between drugs (in words): almost identical
Lewis lung tumor
  fluorescence emission of tumor extracts (in words): greater tumor fluorescence emission at 647 nm than at 627 nm
[2]; pH 7.5, 4° C.
  storage stability of aqueous solution at 4° C.: gradual hydrolysis of the ester-linkage
[2]; pH 7.5, -20° C.
  storage stability of aqueous solution at -20° C.: remained stable

## Dihematoporphyrin ester [DHE]
[1]
  Action spectrum: cell viability after irradiation at 620 nm (mean + SD of control percentage): 68 + 4 control percentage
  Action spectrum: cell viability after irradiation at 630 nm (mean + SD of control percentage): 45 + 2 control percentage
  Action spectrum: cell viability after irradiation at 640 nm (mean + SD of control percentage): 85 + 5 control percentage
  Action spectrum: cell viability after irradiation at 650 nm (mean + SD of control percentage): 96 + 3 control percentage
  optimal phototoxic light wave length: 630 nm
L1210 cells
  in vitro accumulation compared between drugs (in words): almost identical
  Uptake in vitro: 0.49
Lewis lung tumor
  accumulation of fluorescent components at tumor loci (in words): accumulation of fluorescent components at tumor loci
  Uptake in vivo: 2.1
  fluorescence emission of tumor extracts (in words): fluorescence at 627 nm only
